Converted amounts (≈) assume the structure as drawn.

Assay [1] has as its system E. coli W3110. The assay is described as follows: microbe, parasite or virus in culture. Type of assay: cell-based. As to conditions: Escherichia coli, W3110, 22 h, wild-type E. coli W3110; 22 hours at 37° C., MTT.
Assay [2] deals with P. aeruginosa PAO1. As to the kind of experiment: MIC assay, P. aeruginosa PAO1. Type of assay: cell-based. As to conditions: Pseudomonas aeruginosa, PAO1, P. aeruginosa PAO1.
Assay [3] deals with E. coli W3110PA. The assay is described as follows: microbe, parasite or virus in culture. Type of assay: cell-based. As to conditions: Escherichia coli, W3110PA, E. coli with native lpxC replaced by that of P. aeruginosa.
The test system of assay [4] is E. coli W3110NG. The assay is described as follows: MIC assay, E. coli W3110NG. Type of assay: cell-based. As to conditions: Escherichia coli.
The subject of assay [5] is F. novicida U112 (FNU112). As to the kind of experiment: microbe, parasite or virus in culture. The class given is cell-based. As to conditions: Francisella tularensis, read-out: MIC FNU112.
The test system of assay [6] is N. gonorrhoeae (FA35/02). As to the kind of experiment: MIC assay, N. gonorrhoeae 35/02. The class given is cell-based. The note with it: drug-resistant strain; for MIC: Neisseria gonorrhoeae. The procedure: MICs are determined according to the NCCLS protocol using 96-well plates. Briefly, diluted bacterial cells (10^6 cells/mL) are added into each well of the 96-well plates containing LB medium with 5% DMSO and various concentrations of the compound of disclosure. After incubation of the plates for 22 hours at 37° C., [4,5-dimethylthiazol-2-yl]-2,5-diphenyltetrazolium bromide solution (MTT) is added (final concentration, 0.2 mg/mL) and incubated at 37° C. for another 3 hrs. MIC is determined as the lowest concentration of an antibiotic that prevented color change (yellow to purple).
The antibiotic activities of several exemplary compounds useful in the methods of the disclosure are evaluated by measurements of minimum inhibitory concentrations (MICs) using two N. gonorrhoeae strains: FA19 (a drug-sensitive strain) and 35/02 (drug-resistant strain.) FA19 is an isolate from uncomplicated infection and was lyophilized in 1962. […] The strain is being sequenced to elucidate the mechanisms involved in high-level chromosomally mediated resistance.

Assay [7] relates to N. gonorrhoeae FA19 (a drug-sensitive strain). As to the kind of experiment: Disk diffusion assay, N. gonorrhoeae FA19. The class given is cell-based. As to conditions: Neisseria gonorrhoeae, disc 6 mm, read-out: diameter of the growth inhibition, FA19; for zone of inhibition at 0.2 µg/disc: 0.2 μg per disc; for zone of inhibition at 2 µg/disc: 2.0 μg per disc; for zone of inhibition at 20 µg/disc: 20 μg per disc. The procedure: (§1) An assay was performed on two strains of Acinetobacter Baumannii: antibiotic susceptible strain (Sus. A.b. Isolate), and multidrug-resistant strains (MDR A.b. Isolate). […] Activity is measured as the diameter (in mm) of the growth inhibition.

In assay [8] the test system is N. gonorrhoeae 35/02 (drug-resistant strain). As to the kind of experiment: Disk diffusion assay, N. gonorrhoeae 35/02. Type of assay: cell-based. The note with it: Neisseria gonorrhoeae, disc 6 mm, read-out: diameter of the growth inhibition, 35/02; for zone of inhibition at 0.2 µg/disc: 0.2 μg per disc; for zone of inhibition at 2 µg/disc: 2.0 μg per disc; for zone of inhibition at 20 µg/disc: 20 μg per disc. The procedure:
as §1

Assay [9] concerns N. gonorrhoeae F89 (high-level cefixime and ceftriaxone resistance). The assay is described as follows: Disk diffusion assay, N. gonorrhoeae F89. The note with it: Neisseria gonorrhoeae, disc 6 mm, read-out: diameter of the growth inhibition, F89; for zone of inhibition at 0.2 µg/disc: 0.2 μg per disc; for zone of inhibition at 2 µg/disc: 2.0 μg per disc; for zone of inhibition at 20 µg/disc: 20 μg per disc. Type of assay: cell-based. The procedure: as §1

The test system of assay [10] is N. gonorrhoeae H041. As to the kind of experiment: Disk diffusion assay, N. gonorrhoeae H041. The class given is cell-based. The note with it: Neisseria gonorrhoeae, disc 6 mm, read-out: diameter of the growth inhibition, H041; for zone of inhibition at 0.2 µg/disc: H041, 0.2 μg per disc; for zone of inhibition at 2 µg/disc: H041, 2.0 μg per disc; for zone of inhibition at 20 µg/disc: H041, 20 μg per disc. The protocol: as §1
(In agar diffusion tests the substance spreads into inoculated agar from a disc or well.)

Assay [11] has as its system N. gonorrhoeae (FA35/02). The note with it: description of the resistance of strain 35/02; cited from earlier work.

Consider `C[C@@H](O)[C@H](NCc1ccc(-c2ccccc2)cc1)C(=O)NO` [Example 9, (2S,3R)-2-(biphenyl-4-ylmethylamino)-N,3-dihydroxybutanamide], for which the MIC in assay [1] was 25 µg/mL (≈ 83.2 µM); in assay [2] it was 5.4 µg/mL (≈ 18 µM); in [3], 4.8 µg/mL (≈ 16 µM); in assay [4] it was > 50 µg/mL; in assay [5], > 5 µg/mL.

`CC(NCCCc1ccc(-c2ccccc2)cc1)(C(=O)NO)C(C)(O)C(F)F` (stereo not drawn) [Example 10, 2-(3-(biphenyl-4-yl)propylamino)-4,4-difluoro-N,3-dihydroxy-2,3-dimethylbutanamide]: the MIC in [1] is 61.2 µg/mL (≈ 156 µM); in assay [2], 2.5 µg/mL (≈ 6.37 µM); in assay [6], 0.06 µg/mL (≈ 0.153 µM). The zone of inhibition at 0.2 µg/disc stood at 17 mm in assay [7], 15 mm in [8], 20 mm in assay [9] and 13 mm in assay [10]. The zone of inhibition at 2 µg/disc was 25 to 27 mm in [7], 20 mm in [8], 28 mm in assay [9] and 20 mm in [10]. The zone of inhibition at 20 µg/disc in assay [7] stood at 30 mm; in assay [8] it was 27 mm; in [9] it was 35 mm; in [10] it was 27 mm.

On to `C[C@@](O)(C(F)F)[C@H](NCCCc1ccc(-c2ccccc2)cc1)C(=O)NO` [Example 11, (2S,3S)-2-(3-(biphenyl-4-yl)propylamino)-4,4-difluoro-N,3-dihydroxy-3-methylbutanamide], for which the MIC in assay [1] is 1.25 µg/mL (≈ 3.3 µM); in [2], 2.5 µg/mL (≈ 6.61 µM); in assay [3] it was 1.25 µg/mL (≈ 3.3 µM); in [6], 0.03 to 0.06 µg/mL (≈ 0.0793 to 0.159 µM). In addition, the “MIC N. gonorrhoeae (FA35/02)” value in [6] is 0.03 µg/mL (≈ 0.0793 µM). For the same compound, the zone of inhibition at 0.2 µg/disc was 18 mm in [7], 14 mm in assay [8], 19 mm in [9] and 11 mm in assay [10]. Also, the zone of inhibition at 2 µg/disc worked out at 25 mm in assay [7], 23 mm in assay [8], 26 mm in [9] and 20 mm in [10]. The zone of inhibition at 20 µg/disc in [7] is 30 mm; in [8], 26 mm; in assay [9] it was 33 mm; in assay [10] it was 27 mm.

For `COc1ccc(-c2ccn(CCC(C)(C(=O)NO)S(C)(=O)=O)c(=O)c2)cc1` (stereo not drawn) [Example 13, N-hydroxy-4-(4-(4-methoxyphenyl)-2-oxopyridin-1 (2H)-yl)-2-methyl-2-(methylsulfonyl)butanamide], the MIC in assay [1] is < 0.78 µg/mL; in assay [2] it was < 0.78 µg/mL; in assay [3], < 0.78 µg/mL; in [4], 1.25 µg/mL (≈ 3.17 µM); in [5], 1.25 µg/mL (≈ 3.17 µM).

`C[C@@](O)(C(F)F)[C@H](NC(=O)CCc1ccc(-c2ccccc2)cc1)C(=O)NO` [Example 14, (2S,3S)-2-(3-(biphenyl-4-yl)propanamido)-4,4-difluoro-N,3-dihydroxy-3-methylbutanamide]: the MIC in assay [1] came to 6.25 µg/mL (≈ 15.9 µM); in assay [3], 12.5 µg/mL (≈ 31.9 µM); in [5], 12.5 µg/mL (≈ 31.9 µM); in [6], 0.25 µg/mL (≈ 0.637 µM). Moreover, the zone of inhibition at 0.2 µg/disc in [7] was 18 mm; in assay [8], 14 mm; in [9], 18 mm; in assay [10] it was 7 mm. Besides, the zone of inhibition at 2 µg/disc in [7] was found to be 27 mm; in assay [8], 22 mm; in assay [9], 27 mm; in [10], 20 mm. Also, the zone of inhibition at 20 µg/disc in assay [7] was found to be 30 mm; in [8], 28 mm; in assay [9], 34 mm; in assay [10] it was 26 mm.

Regarding `CO/N=C(\C(=O)N[C@@H]1C(=O)N2C(C(=O)O)=C(CSc3nc(=O)c(=O)[nH]n3C)CS[C@H]12)c1csc(N)n1` [ceftriaxone], the “MIC of reference antibiotics against N. gonorrhoeae 35/02” value in [11] is 0.12 µg/mL.

Regarding penicillin, the “MIC of reference antibiotics against N. gonorrhoeae 35/02” value in assay [11] is 6 µg/mL.

The values are drawn from patent US10189786B2, “Antibacterial compounds” (Duke University, priority 2013, dated 2019).
